Laboratory results: patent US20190136321A1, “USE OF TRANSLATIONAL PROFILING TO IDENTIFY TARGET MOLECULES FOR THERAPEUTIC TREATMENT” (The Regents of The University of California, priority 2013, published 2019)

System: SW620 cells
Assay: Ribosome profiling of SW620 cells (transcription, translational rate, translational efficiency)
Assay type: cell-based, human
Conditions: 8 hours
Method: SW620 human colon cancer cells were cultured in DMEM media supplemented with penicillin G (100 U/ml), streptomycin (100 μg/ml), and 10% FBS in a humidified atmosphere of 5% CO2 maintained at 37° C.
SW620 cells (ATCC, passage 12) were seeded at about 75% confluence 24 hrs prior to drug treatment. […] About 6×10^6 cells/10 cm plate and about 1×10^6 cells/well of a 6-well plate were harvested for ribosome profiling and Western blot analysis, respectively, following drug treatment.

## CC(=O)Nc1cccc(-n2c(=O)n(C3CC3)c(=O)c3c(Nc4ccc(I)cc4F)n(C)c(=O)c(C)c32)c1 [GSK212]
Gene ARID5A, 250 nM
  Profile TE: −0.4 log2 MEKi/DMSO
  Profile rna: −0.5 log2 MEKi/DMSO
  Profile rpf: −0.9 log2 MEKi/DMSO
Gene B4GALT6, 250 nM
  Profile TE: 0.0 log2 MEKi/DMSO
  Profile rna: 0.0 log2 MEKi/DMSO
  Profile rpf: −0.1 log2 MEKi/DMSO
Gene BXDC2/BRIX1, 250 nM
  Profile TE: 0.2 log2 MEKi/DMSO
  Profile rna: −1.1 log2 MEKi/DMSO
  Profile rpf: −0.8 log2 MEKi/DMSO
Gene BYSL, 250 nM
  Profile TE: 0.2 log2 MEKi/DMSO
  Profile rna: −0.8 log2 MEKi/DMSO
  Profile rpf: −0.6 log2 MEKi/DMSO
Gene CCND1, 250 nM
  Profile TE: −0.3 log2 MEKi/DMSO
  Profile rna: −1.8 log2 MEKi/DMSO
  Profile rpf: −2.0 log2 MEKi/DMSO
Gene CD3EAP, 250 nM
  Profile TE: −0.5 log2 MEKi/DMSO
  Profile rna: −0.6 log2 MEKi/DMSO
  Profile rpf: −1.1 log2 MEKi/DMSO
Gene CHSY1, 250 nM
  Profile TE: −0.7 log2 MEKi/DMSO
  Profile rna: 0.0 log2 MEKi/DMSO
  Profile rpf: −0.7 log2 MEKi/DMSO
Gene DDX21, 250 nM
  Profile TE: −0.6 log2 MEKi/DMSO
  Profile rna: −0.3 log2 MEKi/DMSO
  Profile rpf: −1.0 log2 MEKi/DMSO
Gene DUSP4, 250 nM
  Profile TE: −0.4 log2 MEKi/DMSO
  Profile rna: −2.0 log2 MEKi/DMSO
  Profile rpf: −2.4 log2 MEKi/DMSO
Gene DUSP6, 250 nM
  Profile TE: −3.1 log2 MEKi/DMSO
  Profile rna: −6.3 log2 MEKi/DMSO
  Profile rpf: −9.3 log2 MEKi/DMSO
Gene EGR1, 250 nM
  Profile TE: −3.1 log2 MEKi/DMSO
  Profile rna: −1.0 log2 MEKi/DMSO
  Profile rpf: −4.1 log2 MEKi/DMSO
Gene ELOVL6, 250 nM
  Profile TE: 0.6 log2 MEKi/DMSO
  Profile rna: −1.4 log2 MEKi/DMSO
  Profile rpf: −0.8 log2 MEKi/DMSO
Gene ETV1, 250 nM
  Profile rna: −3.5 log2 MEKi/DMSO
Gene ETV4, 250 nM
  Profile TE: −0.6 log2 MEKi/DMSO
  Profile rna: −2.2 log2 MEKi/DMSO
  Profile rpf: −2.8 log2 MEKi/DMSO
Gene ETV5, 250 nM
  Profile TE: −3.0 log2 MEKi/DMSO
  Profile rna: −2.6 log2 MEKi/DMSO
  Profile rpf: −5.6 log2 MEKi/DMSO
Gene FLJ10534/TSR1, 250 nM
  Profile TE: −0.6 log2 MEKi/DMSO
  Profile rna: −0.3 log2 MEKi/DMSO
  Profile rpf: −0.8 log2 MEKi/DMSO
Gene FOS, 250 nM
  Profile TE: 0.2 log2 MEKi/DMSO
  Profile rna: −2.9 log2 MEKi/DMSO
  Profile rpf: −2.7 log2 MEKi/DMSO
Gene FOSL1, 250 nM
  Profile TE: −0.5 log2 MEKi/DMSO
  Profile rna: −3.6 log2 MEKi/DMSO
  Profile rpf: −4.1 log2 MEKi/DMSO
Gene GEMIN4, 250 nM
  Profile TE: −0.5 log2 MEKi/DMSO
  Profile rna: −0.1 log2 MEKi/DMSO
  Profile rpf: −0.6 log2 MEKi/DMSO
Gene GNL3, 250 nM
  Profile TE: −0.2 log2 MEKi/DMSO
  Profile rna: −0.7 log2 MEKi/DMSO
  Profile rpf: −0.8 log2 MEKi/DMSO
Gene GPR3, 250 nM
  Profile rpf: −2.8 log2 MEKi/DMSO
Gene GTPBP4, 250 nM
  Profile TE: −0.3 log2 MEKi/DMSO
  Profile rna: −0.4 log2 MEKi/DMSO
  Profile rpf: −0.7 log2 MEKi/DMSO
Gene HMGA2, 250 nM
  Profile TE: 1.2 log2 MEKi/DMSO
  Profile rna: −2.9 log2 MEKi/DMSO
  Profile rpf: −1.7 log2 MEKi/DMSO
Gene HSPC111/NOP16, 250 nM
  Profile TE: 0.6 log2 MEKi/DMSO
  Profile rna: −1.5 log2 MEKi/DMSO
  Profile rpf: −0.9 log2 MEKi/DMSO
Gene IER3, 250 nM
  Profile TE: −0.1 log2 MEKi/DMSO
  Profile rna: −2.2 log2 MEKi/DMSO
  Profile rpf: −2.3 log2 MEKi/DMSO
Gene IL8, 250 nM
  Profile TE: 2.4 log2 MEKi/DMSO
  Profile rna: −5.6 log2 MEKi/DMSO
  Profile rpf: −3.2 log2 MEKi/DMSO
